From patent US20260224532A1, “ESTROGEN RECEPTOR BETA LIGANDS FOR THE PREVENTION AND TREATMENT OF MULTIPLE SCLEROSIS (MS) AND OTHER DEMYELINATING, INFLAMMATORY AND NEURODEGENERATIVE DISEASES” (The Board of Trustees of the University of Illinois, priority 2023, published 2026)
“Also recorded” adds a separate entry of the source. Like-named read-outs stand apart in the source and are kept apart here.

How the values were obtained:
[1] = tested on: uterus; experiment: Uterotrophic effect (uterine weight) in non-ovariectomized mice of the cuprizone study; assay type: in vivo; conditions: daily SC 5 mg/kg
From the text: The uterus was taken from the mice treated with compounds 5 and 7 from the recovery assessment study using the Cuprizone-induced demyelination model. Uterine weight for each compound is represented by % uterus/body weight.
Estrogens increase uterine weight by acting primarily through ERα (Hewitt and Korach, 2003).

[2] = target: T1, purified, full length human ERα (Homo sapiens, UniProt P03372); experiment: Relative binding affinity (RBA) radiometric competitive binding assay, ERα; conditions: relative binding affinity, E2 (estradiol) is 100%; tritiated estradiol tracer
T1 construct: purified, full length human ERα and ERβ
T1 sequence (P03372 1-595): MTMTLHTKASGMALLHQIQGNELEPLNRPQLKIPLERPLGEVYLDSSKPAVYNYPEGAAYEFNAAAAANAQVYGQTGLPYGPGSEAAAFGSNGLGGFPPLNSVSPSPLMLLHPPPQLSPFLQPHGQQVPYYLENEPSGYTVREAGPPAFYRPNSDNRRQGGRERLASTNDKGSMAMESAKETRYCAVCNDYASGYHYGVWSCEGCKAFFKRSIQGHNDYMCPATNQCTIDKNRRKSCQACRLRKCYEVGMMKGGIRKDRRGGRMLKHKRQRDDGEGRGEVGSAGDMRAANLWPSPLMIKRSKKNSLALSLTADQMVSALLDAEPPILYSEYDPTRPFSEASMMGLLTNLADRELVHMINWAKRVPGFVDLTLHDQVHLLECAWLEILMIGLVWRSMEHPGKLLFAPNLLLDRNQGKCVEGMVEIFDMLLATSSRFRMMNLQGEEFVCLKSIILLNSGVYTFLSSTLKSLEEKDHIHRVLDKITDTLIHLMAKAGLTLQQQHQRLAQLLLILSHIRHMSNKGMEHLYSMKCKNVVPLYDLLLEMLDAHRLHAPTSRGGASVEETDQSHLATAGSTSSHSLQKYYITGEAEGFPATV

[3] = target: T2, purified, full length human ERβ (Homo sapiens, UniProt Q92731); experiment: Relative binding affinity (RBA) radiometric competitive binding assay, ERβ; conditions: for β/α (ERβ/ERα selectivity): ratio of RBA ERβ to RBA ERα
T2 construct: purified, full length human ERα and ERβ
T2 sequence (Q92731 whole entry): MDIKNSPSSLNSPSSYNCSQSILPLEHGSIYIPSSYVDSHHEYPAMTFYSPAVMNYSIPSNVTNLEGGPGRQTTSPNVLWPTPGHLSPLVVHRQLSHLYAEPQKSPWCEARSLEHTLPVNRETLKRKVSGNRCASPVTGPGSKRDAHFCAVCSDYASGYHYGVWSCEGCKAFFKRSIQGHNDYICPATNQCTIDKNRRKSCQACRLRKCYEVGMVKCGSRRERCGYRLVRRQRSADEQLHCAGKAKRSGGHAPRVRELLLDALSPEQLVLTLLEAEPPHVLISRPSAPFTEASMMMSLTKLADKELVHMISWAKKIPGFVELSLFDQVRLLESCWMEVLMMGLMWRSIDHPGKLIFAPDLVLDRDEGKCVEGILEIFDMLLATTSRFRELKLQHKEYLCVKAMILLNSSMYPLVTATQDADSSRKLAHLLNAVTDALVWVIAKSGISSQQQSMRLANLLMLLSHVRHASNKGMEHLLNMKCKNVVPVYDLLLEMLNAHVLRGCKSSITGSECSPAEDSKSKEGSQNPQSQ

[4] = tested on: Cuprizone-Induced Demyelinated Mouse Model; experiment: Myelin recovery in the cuprizone-induced demyelinated mouse model (MOG IHC, Corpus Callosum); assay type: in vivo, C57BL/6 female mice
Description: The Cuprizone assay of demyelination-remyelination was conducted by the methods described previously (Moore et al. 2013; Crawford et al, 2009a,b). A group of animals was on normal diet (N groups). The remainder of the mice were divided into groups of 5 and all of these groups of mice were fed cuprizone diet at (0.2% cuprizone mixed in chow). After 6 weeks on cuprizone diet-induced demyelination, a group of 5 mice were perfused (DM group). The other groups of mice were switched to normal diet for 1.5 weeks to initiate remyelination and were treated with either (i) Vehicle (SC+V) or (ii) test compound at a dose of 5 mg/kg. […] After 1.5 weeks of normal diet-induced remyelination, the mice were perfused. Brains were collected, cryoprotected, embedded, cut, and IHC for myelin oligodendrocyte glycoproteins (MOG) was performed. Cuprizone study results after 1.5-weeks treatment with the designated 7-substituted compounds via SC administration following 6 weeks cuprizone treatment of (C57BL/6) female mice are shown in FIG. 5. The height of each bar graph represents level of myelination assessed by the expression of MOG in the white matter tracks of the Corpus Callosum area quantified by immunohistochemical analysis (IHC) after staining with a MOG antibody. N: Normal diet, DM: Demyelinated status after 6 weeks cuprizone treatment, SC-Veh: Spontaneous remyelination after injection with matrix in saline solution only (without compound; recovery is only about 40%). (Mice: ~2 months age, SC: Subcutaneous injection, n=5). Cuprizone study results for the 3-weeks treatment with the 6-substituted compound 17 via SC administration following the 6 weeks of 0.2% cuprizone treatment of C57BL/6 female mice are shown in FIG. 6. The height of each bar graph represents level of myelination assessed by the expression of MOG in the white matter tracks of the Corpus Callosum area quantified by immunohistochemical analysis (IHC) after staining with a MOG antibody. N: Normal diet, DM: Demyelinated status after 6 weeks cuprizone treatment, SC-Veh: Spontaneous remyelination after injection with matrix in saline solution only (without compound; recovery is only about 40%). (Mice: ~2 months age, SC: Subcutaneous injection, n=5~6). […] (Mice: ~2 months age, s.c.: Subcutaneous administration, n=5).

[5] = 2-hour single-point pharmacokinetic (PK) study, blood and brain; assay type: in vivo, C57BL/6 female mice; conditions: for Kp at 2 h: female, C57BL/6, mouse, brain / blood
Description: The 2-Hour single-point pharmacokinetics for IndCl-7-Cl (compound 7), IndCl-7-Br-3′-OH (compound 12), and IndCl-7-Cl-3′-F (compound 14) was examined in (two and half month old C57BL/6 female) mice after single subcutaneous (SC) injection or oral gavage (PO) in 0.1 mL at a dose 5 mg/kg for SC and 25 mg/kg for PO administration. The vehicle for SC administration was 0.1 mL 10% ethanol and 90% Miglyol 812N or 10% DMSO saline and for PO administration, 0.1 mL 2-hydroxypropyl-beta-cyclodextrin [HPCD]/40% aqueous solution MW ~1540. Two hours after injection blood and brain were collected and processed for quantification of the administered compound at the University of Illinois Metabolomics Core Facility by liquid chromatography-mass spectrometry (LC-MS/MS). The bar graphs indicate the analyzed concentration in the blood and the brain in nM units for each sample and each administered method. The brain uptake ratio over the blood of compound 7 (IndCl-7-C1) in the PO and SC pharmacokinetic study is as high as ~7 and ~6, respectively.
For subcutaneous (SC) injection, the compound made up as a homogeneous suspension in 10% ethanol and 90% Miglyol 812N (vehicle; Sasol) and a 0.1 mL dose was administered by SC injection at a dose of 5 mg/kg body weight. For PO administration, the compound was dissolved into 40% (2-Hydroxypropyl)-β-cyclodextrin (Mw~ 1540)(HP-CD) and administered via oral gavage in a volume of 0.1 mL at a dose of 25 mg/kg body weight.

[6] = tested on: Primary OPCs; experiment: Primary OPC culture: MBP+ OL differentiation and total cell count (DAPI); assay type: cell-based, mouse; conditions: for MBP expression / number of MBP+ OLs, compared to vehicle-treated cells: 1 nM; for number of MBP+ OLs with increased percentage of branched OLs, compared to vehicle-treated cells: 10 nM
Description: Primary OPC Cultures: Primary OPCs, isolated from postnatal day P1 C57BL/6 male and female mouse cortices as described previously, are treated with 10 nM ligands in differentiating medium for […] (Tiwari-Woodruff et al., 2001; Tiwari-Woodruff et al., 2006). Primary OPC are cultured into 8-well chamber slides (three wells per condition, 2.5×10^5 cells/well) for three days to attach and five days in differentiating media (consisting of DMEM-F12 with triiodothyronine- and thyroxine-containing Sato as well as penicillin, streptomycin, insulin, N-acetyl-L-cysteine, forskolin, ciliary neurotrophic factor, neurotrophin-3, and platelet-derived growth factor […] (Tiwari-Woodruff et al., 2001)). A positive control (IndC1), a negative control (Vehicle consisting of the media+EtOH mixture used to dissolve IndCl), and a normal control (differentiating media alone) are used for comparison. At the end of the treatment period, cells are fixed, stained by immunocytochemistry (primary antibody polyclonal chicken myelin basic protein (MBP, Millipore AB9348), and co-stained with nuclear stain-DAPI), and imaged with an Olympus BX61 confocal microscope (Olympus America Inc., Center Valley, PA) at 10× magnification (3 images per well). Cells are counted using the ImageJ multipoint tool, and counts are then divided by the image area (mm^2). Average cell density for each condition is then divided by the normal condition cell density. Analysis of OL differentiation consists of counting the number of MBP+ cells and process extensions that are longer than the respective cell-body diameter and tracking the number of highly branched MBP+ cells (with three or more processes) (Monnerie et al., 2017). Statistics are performed using GraphPad Prism 6 Software (La Jolla, CA). One-way ANOVA with Tukey's posthoc test for multiple comparisons is used to generate p-values, and data are presented as mean±SEM (with α≤0.05).
FIG. 1A-1D show the effects of treatment with the 7-substituted indazole compounds on the expression of myelin basic protein in OLs (MBP^+-OLs, top two panels) as an indication of murine oligodendrocyte precursor cell (OPC) differentiation, as well as the count of the total cells as an indication of cell proliferation/survival (DAPI nucleus stain, bottom two panels). The cells were treated with the listed compounds at 10 nM (FIG. 1A, 1B) and at 1 nM (FIG. 1C, 1D).

[7] = SC 5 mg/kg, 1.5-weeks treatment after 6 weeks cuprizone

SMILES	uterotrophic effect, uterine weight (% uterus/body weight) vs vehicle [1]	RBA ERα [2]	β/α (ERβ/ERα selectivity) [3]	remyelination (MOG expression in Corpus Callosum) [4, 7]	concentration in the brain after PO administration compared with SC injection ([5]; PO 25 mg/kg vs SC 5 mg/kg, 2 hours)	brain uptake (in words) ([5]; PO 25 mg/kg, 2 hours)	brain uptake (in words) ([5]; SC 5 mg/kg, 2 hours)	Kp at 2 h ([5]; PO 25 mg/kg, 2 hours after dosing, read-out: brain uptake ratio over the blood)	Kp at 2 h ([5]; SC 5 mg/kg, 2 hours after dosing, read-out: brain uptake ratio over the blood)	MBP expression / number of MBP+ OLs, compared to vehicle-treated cells [6]	number of MBP+ OLs with increased percentage of branched OLs, compared to vehicle-treated cells [6]	RBA ERβ ([3]; relative binding affinity, E2 (estradiol) is 100%, tritiated estradiol tracer)	remyelination (MOG expression in Corpus Callosum) ([4]; SC, 3-weeks treatment after 6 weeks of 0.2% cuprizone)	Kp at 2 h ([5]; PO 25 mg/kg, 2 hours, n=3, read-out: concentration in brain relative to concentration in blood)
Oc1ccc(-n2nc3c(Cl)cc(O)cc3c2Cl)cc1 [Compound 7, 3,7-dichloro-2-(4-hydroxyphenyl)-2H-indazol-5-ol]	did not show uterotrophic effects significantly different from mice treated with vehicle alone; also recorded: did not stimulate the uterus weight significantly	6.9 ± 2.4%	45	accelerates remyelination, reaching levels at or above the normal myelin level	markedly higher	selective high brain uptake	selective high brain uptake	~7	~6	particularly significant increase	significant increase			
Oc1ccc(-n2nc3c(Br)cc(O)cc3c2I)cc1 [Compound 5, 7-bromo-2-(4-hydroxyphenyl)-3-iodo-2H-indazol-5-ol]	did not show uterotrophic effects significantly different from mice treated with vehicle alone; also recorded: did not stimulate the uterus weight significantly	6.95%	23	somewhat less remyelination							significant increase			
Oc1ccc(-n2nc3cc(F)c(O)cc3c2Cl)cc1 [Compound 17, 3-chloro-6-fluoro-2-(4-hydroxyphenyl)-2H-indazol-5-ol]		0.968%	48.7							good MBP expression; also recorded: significant increase	significant increase	47.11%	recover above the normal level; also recorded: accelerate remyelination to reach a level at or above the normal level	3
